This is an account of results in patent US20240173347A1, “COMPOSITIONS FOR RAISING NAD LEVELS AND METHODS AND USES THEREOF” (ACCURI, LLC, priority 2022, published 2024).

The test system of the assay is intracellular NAD. Briefly: Intracellular NAD levels in users before and after supplementation. It counts as in vivo, human. To be noted: intravenous infusion, 5 sessions of 750 mg.

`NC(=O)c1ccc[n+]([C@@H]2O[C@H](COP(=O)([O-])OP(=O)(O)OC[C@H]3O[C@@H](n4cnc5c(N)ncnc54)[C@H](O)[C@@H]3O)[C@@H](O)[C@H]2O)c1` [NAD+, Nicotinamide adenine dinucleotide]: the “Effect on intracellular NAD levels” value is reported as “does not increase”.
